Measurements: US4594329A, “CRF analogs” (The Salk Institute for Biological Studies, priority 1984, dated 1986)
Square brackets hold non-standard residues; d marks the D form. Peptide text beside a SMILES is read from it. Nle = CCCC[C@H](N)C(=O)O; Orn = NCCC[C@H](N)C(=O)O

How the values were obtained:
[1] = lowering of blood pressure, in vivo testing; details: general procedure of Example III
Description: (§1) The synthetic peptide AHC and oCRF were examined for their effects on the secretion of ACTH and β-endorphin in vitro and was also in vivo. The potency of synthetic oCRF to stimulate the secretion of ACTH and β-endorphin by cultured rat pituitary cells was measured using the procedure as generally set forth in Endocrinology, 91, 562 (1972). […] In vivo testing is carried out using the general procedure set forth in C. Rivier et al., Science, 218, 377 (1982).

[2] = tested on: cultured rat pituitary cells; experiment: secretion of ACTH and β-endorphin by cultured rat pituitary cells; assay type: cell-based
Description: as §1

[3] = general procedure of Example III

CC[C@H](C)[C@H](NC(=O)[C@@H](NC(=O)[C@H](CCC(=O)O)NC(=O)[C@H](CC(C)C)NC(=O)[C@H](CC(C)C)NC(=O)[C@H](CCCCN)NC(=O)[C@H](CCCNC(=N)N)NC(=O)[C@H](CC(N)=O)NC(=O)[C@H](CO)NC(=O)[C@H](Cc1c[nH]cn1)NC(=O)[C@H](C)NC(=O)[C@H](CCC(N)=O)NC(=O)[C@H](CCC(=O)O)NC(=O)[C@H](C)NC(=O)[C@H](CC(C)C)NC(=O)[C@H](CCC(N)=O)NC(=O)[C@H](CCC(=O)O)NC(=O)[C@H](CCCN)NC(=O)[C@H](C)NC(=O)[C@H](CCSC)NC(=O)[C@H](CCC(=O)O)NC(=O)[C@H](CC(C)C)NC(=O)[C@@H](NC(=O)[C@H](CCC(=O)O)NC(=O)[C@H](CCCNC(=N)N)NC(=O)[C@H](CC(C)C)NC(=O)[C@H](CC(C)C)NC(=O)[C@H](Cc1c[nH]cn1)NC(=O)[C@H](Cc1ccccc1)NC(=O)[C@@H](NC(=O)[C@H](CC(C)C)NC(=O)[C@H](CC(=O)O)NC(=O)[C@H](CC(C)C)NC(=O)[C@H](CO)NC(=O)[C@@H](NC(=O)[C@@H]1CCCN1C(=O)[C@@H]1CCCN1C(=O)[C@H](CCC(=O)O)NC(=O)[C@H](CCC(N)=O)NC(=O)[C@@H](N)CO)[C@@H](C)CC)[C@@H](C)O)C(C)C)[C@@H](C)CC)C(N)=O [[Gln^2, Orn^23, Glu^29, Leu^38]-rCRF] (H-SQEPPISLDLTFHLLREVLEMA[Orn]EQLAEQAHSNRKLLEII-NH2)
lowering of blood pressure [1]: very significant lowering of blood pressure
stimulates the secretion of ACTH and β-END-LI [2, 3]: stimulates the secretion of ACTH and β-END-LI

H-SQ[dY][dP]PISLDLTFHLLRE[Nle]LE[Nle]AKAEQEAEQAALNRLLLEEA-NH2 [[D-Tyr^3, D-Pro^4, Nle^18, 21]-AHC]
lowering of blood pressure [1]: very significant lowering of blood pressure
stimulates the secretion of ACTH and β-END-LI [2, 3]: stimulates the secretion of ACTH and β-END-LI

H-SQEPPISLDLTFHLLRE[Nle]LE[Nle]AKAEQEAEQAALNRLLLEEA-NH2 [[Nle^18, 21]-AHC]
lowering of blood pressure [1]: very significant lowering of blood pressure
stimulates the secretion of ACTH and β-END-LI [2, 3]: stimulates the secretion of ACTH and β-END-LI

CCCC[C@H](NC(=O)[C@H](CCC(=O)O)NC(=O)[C@H](CCCNC(=N)N)NC(=O)[C@H](CC(C)C)NC(=O)[C@H](CC(C)C)NC(=O)[C@H](Cc1c[nH]cn1)NC(=O)[C@H](Cc1ccccc1)NC(=O)[C@@H](NC(=O)[C@H](CC(C)C)NC(=O)[C@H](CC(=O)O)NC(=O)[C@H](CC(C)C)NC(=O)[C@H](CO)NC(=O)[C@@H](NC(=O)[C@@H]1CCCN1C(=O)[C@@H]1CCCN1C(=O)[C@H](CCC(=O)O)NC(=O)[C@@H](N)CCC(N)=O)[C@@H](C)CC)[C@@H](C)O)C(=O)N[C@@H](CC(C)C)C(=O)N[C@@H](CCC(=O)O)C(=O)N[C@@H](CCSC)C(=O)N[C@H](C(=O)N[C@@H](CCCCN)C(=O)N[C@@H](C)C(=O)N[C@@H](CC(=O)O)C(=O)N[C@@H](CCC(N)=O)C(=O)N[C@@H](CC(C)C)C(=O)N[C@@H](C)C(=O)N[C@@H](CCC(N)=O)C(=O)N[C@@H](CCC(N)=O)C(=O)N[C@@H](C)C(=O)N[C@@H](Cc1c[nH]cn1)C(=O)N[C@@H](CO)C(=O)N[C@@H](CC(N)=O)C(=O)N[C@@H](CCCNC(=N)N)C(=O)N[C@@H](CCCCN)C(=O)N[C@@H](Cc1ccc(O)cc1)C(=O)N[C@@H](CC(C)C)C(=O)N[C@@H](CC(=O)O)C(=O)N[C@@H](CCC(=O)O)C(=O)N[C@@H](C)C(N)=O)[C@@H](C)O [[Nle^18,Tyr^37,Glu^40]-oCRF(2-41)] (H-QEPPISLDLTFHLLRE[Nle]LEMTKADQLAQQAHSNRKYLDEA-NH2)
lowering of blood pressure [1]: very significant lowering of blood pressure
stimulates the secretion of ACTH and β-END-LI [2, 3]: stimulates the secretion of ACTH and β-END-LI

CCCC[C@H](NC(=O)[C@H](CCC(=O)O)NC(=O)[C@H](CC(C)C)NC(=O)[C@H](CCCC)NC(=O)[C@H](CCC(=O)O)NC(=O)[C@H](CCCNC(=N)N)NC(=O)[C@H](CC(C)C)NC(=O)[C@H](CC(C)C)NC(=O)[C@H](Cc1c[nH]cn1)NC(=O)[C@H](Cc1ccccc1)NC(=O)[C@@H](NC(=O)[C@H](CC(C)C)NC(=O)[C@H](CC(=O)O)NC(=O)[C@H](CC(C)C)NC(=O)[C@H](CO)NC(=O)[C@@H](N)[C@@H](C)CC)[C@@H](C)O)C(=O)N[C@@H](C)C(=O)N[C@@H](CCCCN)C(=O)N[C@@H](C)C(=O)N[C@@H](CCC(=O)O)C(=O)N[C@@H](CCC(N)=O)C(=O)N[C@@H](CCC(=O)O)C(=O)N[C@@H](C)C(=O)N[C@@H](CCC(=O)O)C(=O)N[C@@H](CCC(N)=O)C(=O)N[C@@H](C)C(=O)N[C@@H](C)C(=O)N[C@@H](CC(C)C)C(=O)N[C@@H](CC(N)=O)C(=O)N[C@@H](CCCNC(=N)N)C(=O)N[C@@H](CCCNC(=N)N)C(=O)N[C@@H](CC(C)C)C(=O)N[C@@H](CC(C)C)C(=O)N[C@@H](CCC(=O)O)C(=O)N[C@@H](CCC(=O)O)C(=O)N[C@@H](C)C(N)=O [[Nle^18,21,Arg^36]-AHC(6-41)] (H-ISLDLTFHLLRE[Nle]LE[Nle]AKAEQEAEQAALNRRLLEEA-NH2)
lowering of blood pressure [1]: very significant lowering of blood pressure
stimulates the secretion of ACTH and β-END-LI [2, 3]: stimulates the secretion of ACTH and β-END-Li

H-SQEPPISLDLTFHLLREVLEMTRADQLAQQAHSNRRLLDIA-NH2 [[Arg^23,36]-oCRF]
lowering of blood pressure [1]: very significant lowering of blood pressure
secretion of ACTH and β-END-LI, amount relative to oCRF ([2]; % of oCRF, general procedure of Example III): about 370%

CCCC[C@H](NC(=O)[C@H](CCC(=O)O)NC(=O)[C@H](CC(C)C)NC(=O)[C@H](CCCC)NC(=O)[C@H](CCC(=O)O)NC(=O)[C@H](CCCNC(=N)N)NC(=O)[C@H](CC(C)C)NC(=O)[C@H](CC(C)C)NC(=O)[C@H](Cc1c[nH]cn1)NC(=O)[C@H](Cc1ccccc1)NC(=O)[C@@H](NC(=O)[C@H](CC(C)C)NC(=O)[C@H](CC(=O)O)NC(=O)[C@H](CC(C)C)NC(=O)[C@H](CO)NC(=O)[C@@H](NC(=O)[C@@H]1CCCN1)[C@@H](C)CC)[C@@H](C)O)C(=O)N[C@@H](C)C(=O)N[C@@H](CCCNC(=N)N)C(=O)N[C@@H](C)C(=O)N[C@@H](CCC(=O)O)C(=O)N[C@@H](CCC(N)=O)C(=O)N[C@@H](CCC(=O)O)C(=O)N[C@@H](C)C(=O)N[C@@H](CCC(=O)O)C(=O)N[C@@H](CCC(N)=O)C(=O)N[C@@H](C)C(=O)N[C@@H](C)C(=O)N[C@@H](CC(C)C)C(=O)N[C@@H](CC(N)=O)C(=O)N[C@@H](CCCNC(=N)N)C(=O)N[C@@H](CC(C)C)C(=O)N[C@@H](CC(C)C)C(=O)N[C@@H](CC(C)C)C(=O)N[C@@H](CCC(=O)O)C(=O)N[C@@H](CCC(=O)O)C(=O)N[C@@H](C)C(N)=O [[Nle^18,21,Arg^23]-AHC(5-41)] (H-PISLDLTFHLLRE[Nle]LE[Nle]ARAEQEAEQAALNRLLLEEA-NH2)
lowering of blood pressure [1]: very significant lowering of blood pressure
stimulates the secretion of ACTH and β-END-LI [2, 3]: stimulates the secretion of ACTH and β-END-LI

H-SQE[dP]PISLDLTFHLLRE[Nle]LE[Nle]AKAEQEAEQAALNRLLLEEA-NH2 [[D-Pro^4, Nle^18,21]-AHC]
lowering of blood pressure [1]: very significant lowering of blood pressure
stimulates the secretion of ACTH and β-END-LI [2, 3]: stimulates the secretion of ACTH and β-END-LI

H-SQEPPISLDLTLELLREMLEMAKAEQEAEQAALNRLYLEEA-NH2 [[Leu^12, Glu^13, Tyr^37]-AHC]
lowering of blood pressure [1]: very significant lowering of blood pressure
stimulates the secretion of ACTH and β-END-LI [2, 3]: stimulates the secretion of ACTH and β-END-LI

CC[C@H](C)[C@H](NC(=O)[C@H](CC(=O)O)NC(=O)[C@H](CC(C)C)NC(=O)[C@H](CC(C)C)NC(=O)[C@H](CCCCN)NC(=O)[C@H](CCCNC(=N)N)NC(=O)[C@H](CC(N)=O)NC(=O)[C@H](CO)NC(=O)[C@H](Cc1c[nH]cn1)NC(=O)[C@H](C)NC(=O)[C@H](CCC(N)=O)NC(=O)[C@H](CCC(N)=O)NC(=O)[C@H](C)NC(=O)[C@H](CC(C)C)NC(=O)[C@H](CCC(N)=O)NC(=O)[C@H](CC(=O)O)NC(=O)[C@H](C)NC(=O)[C@H](CCCCN)NC(=O)[C@H](CC(=O)O)NC(=O)[C@H](CCSC)NC(=O)[C@H](CCC(=O)O)NC(=O)[C@H](CC(C)C)NC(=O)[C@@H](NC(=O)[C@H](CCC(=O)O)NC(=O)[C@H](CCCNC(=N)N)NC(=O)[C@H](CC(C)C)NC(=O)[C@H](CC(C)C)NC(=O)[C@H](Cc1c[nH]cn1)NC(=O)[C@H](Cc1ccccc1)NC(=O)[C@@H](NC(=O)[C@H](CC(C)C)NC(=O)[C@H](CC(=O)O)NC(=O)[C@H](CC(C)C)NC(=O)[C@H](CO)NC(=O)[C@@H](NC(=O)[C@H]1CCCN1)[C@@H](C)CC)[C@@H](C)O)C(C)C)C(=O)N[C@@H](C)C(N)=O [[D-Pro^4,Asp^22]-oCRF(4-41)] (H-[dP]ISLDLTFHLLREVLEMDKADQLAQQAHSNRKLLDIA-NH2)
lowering of blood pressure [1]: very significant lowering of blood pressure
stimulates the secretion of ACTH and β-END-LI [2, 3]: stimulates the secretion of ACTH and β-END-LI

H-SQEPPISLDLTFHLLREMLEMAKAEQEAEQAALNRLLLEEA-NH2 [AHC]
EC50 ([2]; cultured rat pituitary cells, read-out: concentration giving half-maximal responses, secretion of ACTH and β-endorphin): ~0.065 nM
potency ([2]; general statement, compared with native CRF, test not named): particularly potent
secretory response to maximal concentrations ([2]; maximal (1-5 nM) concentrations): at a plateau level
